Data on six compounds can be found in patent US5002948A, “3-[4-[4-substituted-1-piperazinyl]-1-butyl]-1H-2,3-dihydroindoles” (H. Lundbeck A/S, priority 1988, dated 1991).

The target of assay [1] is T1, 5-HT1A (Rattus norvegicus, UniProt P19327).
T1 sequence (P19327 1-422): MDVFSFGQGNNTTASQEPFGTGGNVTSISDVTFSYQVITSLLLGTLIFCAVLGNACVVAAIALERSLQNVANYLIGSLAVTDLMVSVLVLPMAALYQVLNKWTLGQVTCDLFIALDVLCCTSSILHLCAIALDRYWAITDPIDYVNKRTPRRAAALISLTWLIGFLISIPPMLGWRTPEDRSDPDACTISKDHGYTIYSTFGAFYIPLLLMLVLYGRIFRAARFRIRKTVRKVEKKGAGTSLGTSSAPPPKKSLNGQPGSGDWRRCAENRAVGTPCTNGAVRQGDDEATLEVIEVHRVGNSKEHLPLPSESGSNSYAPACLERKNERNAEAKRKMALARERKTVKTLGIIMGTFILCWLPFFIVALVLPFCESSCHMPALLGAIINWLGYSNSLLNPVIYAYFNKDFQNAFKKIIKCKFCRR
The experiment in a line: Antagonism of the discriminative stimulus properties induced by 8-OHDPAT in rats. It counts as in vivo, Male Wistar rats. Further details: from tissue; host or cells: whole living animal, male Wistar rats, s.c. dosing. As to conditions: s.c. before 8-OHDPAT, rats trained at 0.4 mg/kg i.p., inhibition of drug responding; for ED50, 8-OH DPAT cue antagonism: 0.4 mg/kg; for ED50: rat, sc, read-out: ED50, 8-OH DPAT cue antagonism. As for the experimental part:
ANTAGONISM OF THE DISCRIMINATIVE STIMULUS PROPERTIES INDUCED BY 8-OHDPAT IN RATS.
This test model is used to determine the antagonist effects of a test compound on 5-HT1A receptors in vivo. A related method is described by Tricklebank, M. D., J. Neill, E. J. Kidd and J. R. Fozard, Eur. J. Pharmacol. 133, 47-56, 1987; Arnt. J., Pharmacology & Toxicology 64, 165-172, 1989.
Male Wistar rats are trained to discriminate between 8-OHDPAT (0.4 mg/kg, i.p., 15 min. pretreatment) and physiological saline in operant chambers equipped with two response levers. Between the levers a dipper is placed, where water rewards (0.1 ml) are presented. The rats are water deprived for at least 24 h and work in a fixed ratio (FR) schedule (final FR=32).
Following 8-OHDPAT administration responding is reinforced only on a designated (drug) lever, whereas responding on the opposite lever has no consequences. Following saline administration responding is reinforced on the lever opposite to the drug lever. Drug and saline trials alternate randomly between training days, although the same treatment is given maximally at 3 consecutive days. The level of discrimination occuracy is expressed as the per cent drug responses and is calculated as the number of correct responses×100 divided by the sum of the correct and incorrect responses before the first reward. When stable occuracy (mean correct responding=90 per cent; individual rats at least 75 per cent correct responding) is obtained test sessions are included between training days. Test compound is injected s.c. at appropriate time before 8-OHDPAT and the test begins 15 min after 8-OHDPAT injection. The test trial is terminated when a total of 32 responses are made on either lever or when 20 min have elapsed. No reward is given and the rats have free access to water for 20-30 min after the test. The effects are expressed as per cent inhibition of drug responding. Only results from rats making at least 10 responses on one lever are included in data analysis. Furthermore, only test sessions in which at least half of the rats respond are included.
The per cent inhibition of drug response obtained for each dose of test compound is used to calculate ED50 values by log-probit analysis.

Assay [2] has as its target T1, 5-HT1A. As to the kind of experiment: Generalization to discriminative stimulus properties induced by 8-OHDPAT in rats (agonism). As to conditions: usually 30 or 45 min before test, substituted for 8-OHDPAT, per cent drug response; for ED50: rat, sc, read-out: ED50, 8-OH DPAT cue agonism. Set-up: from tissue; host or cells: whole living animal, male Wistar rats, s.c. dosing. It is filed as in vivo, Male Wistar rats. An excerpt:
GENERALIZATION TO DISCRIMINATIVE STIMULUS PROPERTIES INDUCED BY 8-OHDPAT IN RATS.
This test model is used to determine the agonist effects of a test compound on 5-HT1A receptors in vivo. A related method is described by Tricklebank, M. D., J. Neill, E. J. Kidd and J. R. Fozard, Eur. J. Pharmacol. 133, 37-56, 1987; Arnt, J., Pharmacology & Toxicology 64, 165-172, 1989.
The procedure is the same as for the antagonism test mentioned above, except that the test compound is substituted for 8-OHDPAT and injected s.c. usually 30 minutes or 45 minutes respectively before beginning of the test.
The per cent drug response obtained for each dose of test compound is used to calculate ED50 values by log-probit analysis.

One may read the ED50 as the midpoint of the dose-response relation. With `COc1ccccc1N1CCN(CCCCC2CNc3ccccc32)CC1` (single isomer, unassigned; (+)) [Compound 7a, (+)-3-[4-[4-(2-methoxyphenyl)-1-piperazinyl]-1-butyl]-1H-2,3-dihydroindole], the “ED50, 8-OH DPAT cue antagonism” value at 5-HT1A [1] came out at 1.0 µmol/kg. Further, the ED50 at 5-HT1A [2] was over 6.8 µmol/kg.

On to `COc1ccccc1N1CCN(CCCCC2CNc3ccccc32)CC1` (single isomer, unassigned; (-)) [Compound 7b, (-)-3-[4-[4-(2-methoxyphenyl)-1-piperazinyl]-1-butyl]-1H-2,3-dihydroindole], for which the “ED50, 8-OH DPAT cue antagonism” value at 5-HT1A [1] is over 3.4 µmol/kg. Also, at 5-HT1A [2] (s.c.), the “ED50, 8-OH DPAT cue agonism” value was over 3.4 µmol/kg.

For `COc1ccccc1N1CCN(CCCCC2CNc3ccccc32)CC1` (stereo not drawn) [Compound 3a, 3-[4-[4-(2-methoxyphenyl)-1-piperazinyl]-1-butyl]-1H-2,3-dihydroindole], the ED50 is 7.2 µmol/kg on 5-HT1A [1] and over 9.2 µmol/kg at 5-HT1A [2].

In the case of `CCOc1ccccc1N1CCN(CCCCC2CNc3ccccc32)CC1` (stereo not drawn) [Compound 3c, 3-[4-[4-(2-ethoxyphenyl)-1-piperazinyl]-1-butyl]-1H-2,3-dihydroindole], the 50% effective dose (ED50) was 4.8 µmol/kg on 5-HT1A [1] and over 26 µmol/kg on 5-HT1A [2].

For `c1ccc2c(c1)NCC2CCCCN1CCN(c2cccc3c2OCC3)CC1` (stereo not drawn) [Compound 3i, 3-[4-[4-(2,3-dihydro-7-benzofuranyl)-1-piperazinyl]-1-butyl]-1H-2,3-dihydroindole], the 50% effective dose (ED50) on 5-HT1A [1] is over 9 µmol/kg; on 5-HT1A [2] it was 2.7 µmol/kg.

Regarding `c1ccc2c(c1)NCC2CCCCN1CCN(c2cccc3c2OCCO3)CC1` (stereo not drawn) [Compound 3j, 3-[4-[4-(1,4-benzodioxan-5-yl)-1-piperazinyl]-1-butyl]-1H-2,3-dihydroindole], the 50% effective dose (ED50) at 5-HT1A [1] was 8.8 µmol/kg; on 5-HT1A [2], over 4.4 µmol/kg.
